Laboratory results as given in ChEMBL document CHEMBL1201862, “PubChem BioAssay data set” (2004).
Active and inactive are the calls of the source.

Assays:
[1] = decrease of insulin promoter-GFP reporter – imaging, high-content screening, mouse beta cells (AID 1628); format: functional; details: MIN6
[2] = MIN6 cell viability loss – mouse insulinoma, cytotoxicity control, dose response (AID 2122); format: functional;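 further: confirmatory high-throughput counterscreen run to flag cytotoxic compounds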
[3] = test system: Streptococcus sp. 'group A'; test: Streptococcus pyogenes SK(-)GAS viability under kanamycin – luminescence, BacTiterGlo, confirmation, counter-screen for streptokinase expression inhibitor project, dose response (AID 1900); format: functional, organism-based
[4] = target: T1, Streptokinase A (Streptococcus pyogenes serotype M1, UniProt P10520); test: viability-normalized secreted streptokinase activity reduction – plasminogen activation absorbance, OD405, dose response (AID 1914); format: functional, Streptococcus pyogenes M1 GAS;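 further: secreted streptokinase activity via plasminogen activation per viability signal from cell pellet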
T1 sequence (P10520 whole entry): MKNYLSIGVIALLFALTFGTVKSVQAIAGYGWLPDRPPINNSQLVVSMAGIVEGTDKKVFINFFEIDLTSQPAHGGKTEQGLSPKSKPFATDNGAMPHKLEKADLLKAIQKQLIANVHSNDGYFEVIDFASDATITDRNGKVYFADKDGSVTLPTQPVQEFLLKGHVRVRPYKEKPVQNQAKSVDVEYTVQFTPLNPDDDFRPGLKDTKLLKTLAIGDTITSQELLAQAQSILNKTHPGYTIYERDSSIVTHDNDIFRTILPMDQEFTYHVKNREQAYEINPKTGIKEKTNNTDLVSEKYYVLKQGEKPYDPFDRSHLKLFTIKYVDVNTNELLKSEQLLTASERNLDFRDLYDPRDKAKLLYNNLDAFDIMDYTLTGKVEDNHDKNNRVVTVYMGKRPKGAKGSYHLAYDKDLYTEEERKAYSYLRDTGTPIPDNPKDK

[5] = target: NS3 (Hepatitis C virus, UniProt A3EZJ3); test: PubChem AID 2173; set-up: species or system Hepacivirus hominis
[6] = Trypanosoma cruzi growth suppression in host cells – NIH3T3 host cells, beta-gal luminescence, confirmation (AID 2044); format: functional, cell-based;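 further: intracellular parasites grown in NIH/3T3 mouse fibroblasts as host cells; luminescent beta-galactosidase reporter signal from transgenic T. cruzi replicating inside host cells; inhibitors lower the luminescence signal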
[7] = viability of PTEN-deleted HCT116 cells – cell-based, HCT116 PTEN knockout, dose response (AID 1047); format: functional;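 further: HCT116 colon tumor cells with PTEN knocked out; cells exposed to compound for 60 hours before readout; potency for loss of cell viability measured by luminescence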
[8] = NIH3T3 cell viability loss – ATP luminescence, mouse fibroblasts, counter-screen, dose response (AID 2010); format: functional, cell-based;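 further: cells exposed to compound for about 90 hours before reading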
[9] = viability of HCT116 lacking mutant beta-catenin – cell-based, human colon tumor, dose response (AID 1045); format: functional;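 further: HCT116 colon tumor cells with beta catenin knocked out; cells exposed to compound for 60 hours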
[10] = test system: Streptococcus; test: GAS UMAA2166 growth inhibition – luminescence, BacTiterGlo, counter-screen for streptokinase expression inhibitor project, dose response (AID 1915); format: functional, organism-based;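 further: potency for reduction of bacterial viability or growth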
[11] = test system: Vero; test: viability of Vero cells under compound – cytotoxicity control for flavivirus capping enzyme inhibitors (AID 588742); format: functional; details: Chlorocebus sabaeus
[12] = target: T2, Exodeoxyribonuclease V (Escherichia coli (strain K12), UniProt P04993+P07648+P08394); test: RecBCD inhibition via phage-restricted bacterial growth – absorbance, V66 E. coli, mutant T4 phage, counter-screen for AddAB inhibitor project, dose response (AID 492957); format: functional, cell-based, Escherichia coli str. K-12 substr. MG1655
T2 sequence (P04993 whole entry): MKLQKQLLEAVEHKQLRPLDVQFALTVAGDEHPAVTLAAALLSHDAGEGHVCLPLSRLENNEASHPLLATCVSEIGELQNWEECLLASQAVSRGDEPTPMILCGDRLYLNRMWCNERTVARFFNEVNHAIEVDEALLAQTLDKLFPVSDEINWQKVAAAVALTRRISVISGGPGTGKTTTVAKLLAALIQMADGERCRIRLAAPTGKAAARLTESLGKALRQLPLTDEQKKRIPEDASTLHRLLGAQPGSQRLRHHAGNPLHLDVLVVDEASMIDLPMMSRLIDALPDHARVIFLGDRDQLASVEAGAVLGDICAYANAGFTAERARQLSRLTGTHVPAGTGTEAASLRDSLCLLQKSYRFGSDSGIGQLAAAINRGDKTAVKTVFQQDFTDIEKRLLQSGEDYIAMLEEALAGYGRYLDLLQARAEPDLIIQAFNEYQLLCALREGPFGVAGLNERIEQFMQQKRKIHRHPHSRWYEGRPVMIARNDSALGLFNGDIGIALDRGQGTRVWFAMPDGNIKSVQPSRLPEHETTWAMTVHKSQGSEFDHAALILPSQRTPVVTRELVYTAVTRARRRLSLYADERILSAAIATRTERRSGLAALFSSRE
T2 sequence (P07648 whole entry): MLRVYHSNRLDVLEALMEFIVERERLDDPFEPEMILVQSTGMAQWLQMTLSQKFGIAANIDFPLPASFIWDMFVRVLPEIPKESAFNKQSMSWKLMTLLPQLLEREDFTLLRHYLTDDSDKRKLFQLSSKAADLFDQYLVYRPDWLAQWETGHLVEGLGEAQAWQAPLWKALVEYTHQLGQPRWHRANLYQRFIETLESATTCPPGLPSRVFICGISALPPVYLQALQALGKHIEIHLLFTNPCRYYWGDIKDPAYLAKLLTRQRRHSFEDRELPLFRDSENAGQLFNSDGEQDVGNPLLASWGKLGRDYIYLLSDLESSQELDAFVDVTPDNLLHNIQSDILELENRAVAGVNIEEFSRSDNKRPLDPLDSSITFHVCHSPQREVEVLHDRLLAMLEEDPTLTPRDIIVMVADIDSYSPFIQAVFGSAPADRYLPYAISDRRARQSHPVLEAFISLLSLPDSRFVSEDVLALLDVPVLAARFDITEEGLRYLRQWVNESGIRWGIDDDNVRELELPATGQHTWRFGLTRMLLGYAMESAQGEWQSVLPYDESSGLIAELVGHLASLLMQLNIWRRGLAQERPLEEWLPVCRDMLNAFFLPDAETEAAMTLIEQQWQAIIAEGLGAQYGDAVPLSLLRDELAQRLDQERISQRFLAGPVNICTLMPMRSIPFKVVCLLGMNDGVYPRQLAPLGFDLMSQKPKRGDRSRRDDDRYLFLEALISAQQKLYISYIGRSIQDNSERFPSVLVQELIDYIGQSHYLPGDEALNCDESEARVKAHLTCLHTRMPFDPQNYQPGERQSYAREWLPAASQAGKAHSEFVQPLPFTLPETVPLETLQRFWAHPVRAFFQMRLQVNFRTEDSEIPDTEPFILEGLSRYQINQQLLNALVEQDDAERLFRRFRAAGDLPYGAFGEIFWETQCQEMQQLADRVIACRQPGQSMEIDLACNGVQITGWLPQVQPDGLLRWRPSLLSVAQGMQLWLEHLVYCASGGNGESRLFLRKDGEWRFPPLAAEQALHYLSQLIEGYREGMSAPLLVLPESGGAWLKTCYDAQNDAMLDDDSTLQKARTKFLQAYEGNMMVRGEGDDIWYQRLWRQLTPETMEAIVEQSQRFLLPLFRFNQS
T2 sequence (P08394 whole entry): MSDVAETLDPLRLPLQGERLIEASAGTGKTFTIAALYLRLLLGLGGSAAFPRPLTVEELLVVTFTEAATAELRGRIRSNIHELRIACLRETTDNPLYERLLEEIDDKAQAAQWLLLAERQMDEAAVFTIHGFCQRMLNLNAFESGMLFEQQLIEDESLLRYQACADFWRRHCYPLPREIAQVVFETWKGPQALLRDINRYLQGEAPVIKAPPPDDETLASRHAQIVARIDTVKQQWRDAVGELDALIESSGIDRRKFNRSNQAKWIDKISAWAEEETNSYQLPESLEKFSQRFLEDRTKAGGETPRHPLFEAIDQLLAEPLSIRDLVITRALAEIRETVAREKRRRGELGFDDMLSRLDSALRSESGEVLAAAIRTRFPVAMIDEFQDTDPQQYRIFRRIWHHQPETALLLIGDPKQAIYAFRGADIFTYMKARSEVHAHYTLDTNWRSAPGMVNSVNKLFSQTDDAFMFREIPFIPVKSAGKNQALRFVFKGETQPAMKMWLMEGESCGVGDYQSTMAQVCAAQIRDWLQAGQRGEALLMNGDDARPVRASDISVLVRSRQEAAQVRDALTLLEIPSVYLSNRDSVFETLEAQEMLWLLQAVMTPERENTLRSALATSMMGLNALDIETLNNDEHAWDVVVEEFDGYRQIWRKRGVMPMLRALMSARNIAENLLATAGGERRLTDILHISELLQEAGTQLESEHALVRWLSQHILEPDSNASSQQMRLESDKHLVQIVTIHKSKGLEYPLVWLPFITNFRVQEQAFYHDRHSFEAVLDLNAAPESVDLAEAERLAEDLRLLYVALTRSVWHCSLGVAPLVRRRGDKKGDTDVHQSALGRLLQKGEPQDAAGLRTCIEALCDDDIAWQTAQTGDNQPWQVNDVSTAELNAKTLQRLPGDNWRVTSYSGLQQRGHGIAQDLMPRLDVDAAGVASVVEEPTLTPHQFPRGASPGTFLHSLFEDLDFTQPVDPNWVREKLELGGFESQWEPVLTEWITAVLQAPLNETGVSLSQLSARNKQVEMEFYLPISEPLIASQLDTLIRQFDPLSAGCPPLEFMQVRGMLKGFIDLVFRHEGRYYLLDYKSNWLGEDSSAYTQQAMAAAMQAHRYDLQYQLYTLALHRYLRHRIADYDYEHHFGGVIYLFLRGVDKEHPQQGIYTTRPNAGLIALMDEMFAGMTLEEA

[13] = Counterscreen for AddAB inhibitors: absorbance-based bacterial cell-based high throughput dose response assay for inhibitors of bacterial viability. [Related pubchem assays (depositor defined):AID435030, AID449728, AID449731, AID488942, AID488955, AID488956]; format: functional
[14] = target: T3, Calpain-2 catalytic subunit (Sus scrofa, UniProt P43367); test: m-calpain protease blockers, concentration series – biochemical, fluorogenic peptide substrate, dose response (AID 1420); format: functional
T3 sequence (P43367 whole entry): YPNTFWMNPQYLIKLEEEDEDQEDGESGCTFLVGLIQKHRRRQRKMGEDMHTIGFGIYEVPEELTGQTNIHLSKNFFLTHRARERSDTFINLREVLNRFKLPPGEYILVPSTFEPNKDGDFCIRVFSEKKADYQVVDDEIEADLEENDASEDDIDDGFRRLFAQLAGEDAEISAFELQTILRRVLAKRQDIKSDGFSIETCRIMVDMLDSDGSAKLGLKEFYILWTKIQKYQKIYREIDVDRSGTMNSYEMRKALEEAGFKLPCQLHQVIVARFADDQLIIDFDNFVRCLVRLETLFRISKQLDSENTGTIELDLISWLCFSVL

[15] = target: T4, Bcl-2-related protein A1 (Mus musculus, UniProt Q07440); format: functional;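 further: confirmatory dose–response counterscreen on Bfl-1, used to check hits from a UBC13 polyubiquitin inhibitor campaign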
T4 sequence (Q07440 whole entry): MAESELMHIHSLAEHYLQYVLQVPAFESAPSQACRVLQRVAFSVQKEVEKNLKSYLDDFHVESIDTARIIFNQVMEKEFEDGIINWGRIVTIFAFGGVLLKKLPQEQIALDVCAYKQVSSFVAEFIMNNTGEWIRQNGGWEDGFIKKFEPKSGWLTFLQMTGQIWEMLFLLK

[16] = target: T5, Ubiquitin-conjugating enzyme E2 N (Homo sapiens, UniProt P61088); format: functional
T5 sequence (P61088 whole entry): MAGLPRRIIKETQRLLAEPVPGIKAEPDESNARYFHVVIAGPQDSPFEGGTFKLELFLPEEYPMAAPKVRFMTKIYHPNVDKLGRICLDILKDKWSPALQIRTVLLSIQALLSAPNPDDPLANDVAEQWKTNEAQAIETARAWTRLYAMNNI

[17] = target: T5, Ubiquitin-conjugating enzyme E2 N; format: functional; remark: listed apart in the source
[18] = target: Intestinal-type alkaline phosphatase (Mus musculus, UniProt P24822); test: PubChem AID 488785; format: functional
[19] = target: T6, Alkaline phosphatase, tissue-nonspecific isozyme (Homo sapiens, UniProt P05186); test: TNAP enzyme inhibition by screening hits, dose response, selectivity assay for mouse IAP inhibitor project, biochemical, human TNAP, uHTS hits (AID 488906); format: functional
T6 sequence (P05186 whole entry): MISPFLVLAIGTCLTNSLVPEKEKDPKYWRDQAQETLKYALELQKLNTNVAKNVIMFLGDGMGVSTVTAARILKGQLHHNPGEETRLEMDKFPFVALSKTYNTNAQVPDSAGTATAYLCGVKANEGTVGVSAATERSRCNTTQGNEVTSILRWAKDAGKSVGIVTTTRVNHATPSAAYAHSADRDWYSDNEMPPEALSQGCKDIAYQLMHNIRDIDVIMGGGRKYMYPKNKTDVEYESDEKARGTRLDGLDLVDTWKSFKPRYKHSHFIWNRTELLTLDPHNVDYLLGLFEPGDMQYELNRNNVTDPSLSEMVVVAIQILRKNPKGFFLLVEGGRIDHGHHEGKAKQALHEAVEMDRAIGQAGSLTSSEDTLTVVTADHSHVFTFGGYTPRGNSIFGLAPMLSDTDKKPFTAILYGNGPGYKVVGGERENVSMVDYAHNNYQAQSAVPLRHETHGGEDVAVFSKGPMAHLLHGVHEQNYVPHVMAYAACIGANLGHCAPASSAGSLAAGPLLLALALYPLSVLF

[20] = target: Intestinal-type alkaline phosphatase (Homo sapiens, UniProt P09923); test: inhibition of human intestinal alkaline phosphatase – biochemical, dose response (AID 488876); format: functional
Sequence of Intestinal-type alkaline phosphatase (Homo sapiens, UniProt P09923) (P09923 whole entry): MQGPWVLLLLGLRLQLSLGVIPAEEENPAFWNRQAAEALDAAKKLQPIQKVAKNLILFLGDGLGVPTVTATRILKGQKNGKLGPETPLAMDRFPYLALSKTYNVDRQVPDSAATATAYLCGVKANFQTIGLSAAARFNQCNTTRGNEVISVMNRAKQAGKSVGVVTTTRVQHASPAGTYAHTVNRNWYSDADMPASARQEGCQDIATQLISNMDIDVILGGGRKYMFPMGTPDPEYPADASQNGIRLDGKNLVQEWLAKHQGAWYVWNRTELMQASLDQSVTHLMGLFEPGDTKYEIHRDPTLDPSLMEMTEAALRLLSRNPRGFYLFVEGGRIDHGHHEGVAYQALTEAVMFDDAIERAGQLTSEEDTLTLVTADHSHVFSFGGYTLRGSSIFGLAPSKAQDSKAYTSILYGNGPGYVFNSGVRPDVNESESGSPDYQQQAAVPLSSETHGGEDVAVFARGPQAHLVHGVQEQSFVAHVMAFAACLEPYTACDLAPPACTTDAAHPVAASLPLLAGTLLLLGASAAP

Sequence of NS3 (A3EZJ3 whole entry): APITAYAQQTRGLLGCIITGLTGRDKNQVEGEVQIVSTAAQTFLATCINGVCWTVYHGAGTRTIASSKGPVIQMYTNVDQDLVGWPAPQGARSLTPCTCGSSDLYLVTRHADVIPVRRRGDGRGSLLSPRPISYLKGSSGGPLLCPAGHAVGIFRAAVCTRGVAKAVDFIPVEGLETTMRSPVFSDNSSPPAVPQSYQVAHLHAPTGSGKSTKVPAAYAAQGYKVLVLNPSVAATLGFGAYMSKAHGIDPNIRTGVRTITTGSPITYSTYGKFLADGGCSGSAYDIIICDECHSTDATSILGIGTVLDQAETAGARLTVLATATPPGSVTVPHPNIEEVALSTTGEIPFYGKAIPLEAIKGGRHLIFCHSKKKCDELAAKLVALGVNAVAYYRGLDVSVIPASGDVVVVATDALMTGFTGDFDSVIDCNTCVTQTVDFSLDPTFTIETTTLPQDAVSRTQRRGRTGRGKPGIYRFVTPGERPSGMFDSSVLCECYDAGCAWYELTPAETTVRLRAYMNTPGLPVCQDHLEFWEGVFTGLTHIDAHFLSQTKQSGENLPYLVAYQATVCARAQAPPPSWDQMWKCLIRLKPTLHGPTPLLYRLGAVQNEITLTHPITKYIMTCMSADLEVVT
Sequence of Intestinal-type alkaline phosphatase (Mus musculus, UniProt P24822) (P24822 whole entry): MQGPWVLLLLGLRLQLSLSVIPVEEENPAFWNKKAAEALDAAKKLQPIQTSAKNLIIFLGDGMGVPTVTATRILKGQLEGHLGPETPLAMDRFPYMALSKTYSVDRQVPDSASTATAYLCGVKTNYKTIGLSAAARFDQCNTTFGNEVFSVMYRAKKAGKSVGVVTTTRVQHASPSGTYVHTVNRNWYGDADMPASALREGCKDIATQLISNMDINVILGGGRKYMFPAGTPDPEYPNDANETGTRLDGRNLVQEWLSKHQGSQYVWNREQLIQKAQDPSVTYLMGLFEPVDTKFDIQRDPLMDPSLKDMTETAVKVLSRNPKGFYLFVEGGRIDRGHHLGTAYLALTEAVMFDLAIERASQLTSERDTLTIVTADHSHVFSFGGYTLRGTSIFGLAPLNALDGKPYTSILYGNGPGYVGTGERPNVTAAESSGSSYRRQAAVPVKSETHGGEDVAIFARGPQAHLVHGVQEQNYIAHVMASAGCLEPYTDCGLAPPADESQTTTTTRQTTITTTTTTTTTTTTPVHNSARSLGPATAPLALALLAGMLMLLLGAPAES

CC(=O)OCC(=O)[C@@]1(O)CC[C@H]2[C@@H]3CCC4=CC(=O)C=C[C@]4(C)[C@@]3(Cl)[C@@H](Cl)C[C@@]21C [DICHLORISONE ACETATE]
IC50 [1]: < 0.25 µM (active)
IC50 [2]: > 16 µM (inactive)

O=C(/C=C/c1ccccc1Cl)c1ccccc(=O)c1O
IC50 [1]: 3.72 µM (active)
EC50 [3]: 1.61 µM (active)
IC50 [2]: 4.43 µM (active)
EC50 [4]: > 150 µM (not active)
IC50 [5]: 4.49 µM (active)
EC50 [6]: 1.22 µM (active)
EC50 [7]: 1.29 µM (active)
EC50 [8]: 6.37 µM (active)
EC50 [9]: 1.07 µM (active)
EC50 [10]: 9.56 µM (active)
CC50 [11]: 9.47 µM (active)

CC(Sc1ccsc1[N+](=O)[O-])C(=O)NCc1ccco1 (configuration not stated)
IC50 [12]: > 119 µM (inactive)
IC50 [13]: > 119 µM (inactive)

O=C(CCCCCN1C(=O)c2ccccc2C1=O)Nc1ccc(S(=O)(=O)N2CCCCC2)cc1
IC50 [14]: 2.38 µM (not active)
IC50 [15]: > 20 µM (inactive)
IC50 [16]: 0.982 µM (active)
IC50 [17]: 1.34 µM (active)

NS(=O)(=O)c1ccc(NC(=S)NC(=O)/C=C/c2ccco2)cc1
IC50 [18]: 1.87 µM (active)
IC50 [19]: > 100 µM (inactive)
IC50 [20]: 8.09 µM (active)
